# Results reported in the supplement of paper PMC6045584.
# ± gives the standard deviation of the averaged measurements.
# Assays:
# MK2206 = compound: NC1(c2ccc(-c3nc4ccn5c(=O)[nH]nc5c4cc3-c3ccccc3)cc2)CCC1 [MK2206]; assay: surviving fraction relative to DMSO-only wells; higher = less growth inhibition; conditions: exposure time: 5 days
# How it was run: (§1)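 Log-phase tumour cell lines were seeded at 250–500 cells per well in 384-well plates. After 24 hours they were exposed continuously for five days to inhibitors at 0.5, 1, 5, 10, 50, 100, 500 and 1000 nM. Viability was read by CellTiter-Glo luminescence after 10 minutes at room temperature, and surviving fraction is luminescence normalised to the median of DMSO-only wells. Each line was screened three times and kept only if replicate Pearson r >0.7 and median Z' >0.3.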
# AZD4547 = compound: COc1cc(CCc2cc(NC(=O)c3ccc(N4CC(C)NC(C)C4)cc3)n[nH]2)cc(OC)c1 [AZD4547]; assay: as above; conditions: exposure time: 5 days
# How it was run: as §1
Test System,surviving fraction (MK2206; 0.5 nM),surviving fraction (MK2206; 1 nM),surviving fraction (MK2206; 5 nM),surviving fraction (MK2206; 10 nM),surviving fraction (MK2206; 50 nM),surviving fraction (MK2206; 100 nM),surviving fraction (MK2206; 500 nM),surviving fraction (MK2206; 1000 nM),surviving fraction (AZD4547; 0.5 nM),surviving fraction (AZD4547; 1 nM),surviving fraction (AZD4547; 5 nM),surviving fraction (AZD4547; 10 nM),surviving fraction (AZD4547; 50 nM),surviving fraction (AZD4547; 100 nM),surviving fraction (AZD4547; 500 nM),surviving fraction (AZD4547; 1000 nM)
SYO1 SYNOVIAL,0.95 ± 0.012,0.975 ± 0.05,0.953 ± 0.022,1 ± 0.028,0.905 ± 0.032,0.885 ± 0.066,0.748 ± 0.051,0.702 ± 0.036,0.897 ± 0.051,0.942 ± 0.022,0.744 ± 0.037,0.737 ± 0.021,0.664 ± 0.012,0.686 ± 0.02,0.637 ± 0.041,0.556 ± 0.046
T47D BREAST,1.04 ± 0.03,1.06 ± 0.064,1 ± 0.036,0.945 ± 0.027,0.755 ± 0.032,0.654 ± 0.042,0.482 ± 0.021,0.449 ± 0.027,1.02 ± 0.044,1.05 ± 0.013,1.06 ± 0.043,1.04 ± 0.034,1.09 ± 0.018,1.12 ± 0.025,1.18 ± 0.03,1.2 ± 0.073
U2OS BONE,0.992 ± 0.017,1.03 ± 0.051,1.03 ± 0.027,1.05 ± 0.026,0.991 ± 0.015,0.941 ± 0.035,0.815 ± 0.0053,0.731 ± 0.055,0.992 ± 0.042,1.024 ± 0.0069,0.95 ± 0.015,0.901 ± 0.024,0.777 ± 0.013,0.759 ± 0.029,0.711 ± 0.012,0.648 ± 0.0075
VCAP PROSTATE,0.898 ± 0.12,0.848 ± 0.073,0.928 ± 0.069,0.936 ± 0.054,0.834 ± 0.13,0.754 ± 0.093,0.507 ± 0.066,0.362 ± 0.017,0.966 ± 0.078,0.976 ± 0.043,1.1 ± 0.12,0.989 ± 0.12,0.948 ± 0.07,1.07 ± 0.07,0.795 ± 0.048,0.705 ± 0.065
VP229 BREAST,1.1 ± 0.13,1.19 ± 0.16,1.19 ± 0.14,1.18 ± 0.15,1.07 ± 0.14,0.909 ± 0.18,0.713 ± 0.055,0.658 ± 0.12,1.32 ± 0.12,1.38 ± 0.049,1.42 ± 0.099,1.38 ± 0.065,1.25 ± 0.1,1.42 ± 0.092,1.4 ± 0.25,1.32 ± 0.033
YAMATO SYNOVIAL,1.13 ± 0.13,1.12 ± 0.023,1.16 ± 0.1,1.08 ± 0.063,0.84 ± 0.022,0.708 ± 0.036,0.521 ± 0.01,0.482 ± 0.027,1.19 ± 0.024,1.22 ± 0.074,1.25 ± 0.038,1.22 ± 0.046,1.16 ± 0.064,1.08 ± 0.045,0.911 ± 0.05,0.816 ± 0.048
ZR751 BREAST,0.962 ± 0.026,1.04 ± 0.088,0.678 ± 0.065,0.734 ± 0.064,0.407 ± 0.024,0.424 ± 0.027,0.308 ± 0.029,0.317 ± 0.029,0.902 ± 0.092,0.949 ± 0.095,0.838 ± 0.076,0.887 ± 0.041,0.837 ± 0.15,1.01 ± 0.029,1.05 ± 0.093,0.971 ± 0.059
